How the values were obtained:
1A9 = assay: Cytotoxicity against ovarian cancer cell line (1A-9) of humans was determined; format: functional, cell-based; conditions: Homo sapiens
KB [1] = assay: The compound was tested for its cytotoxic concentration required to inhibit the replication of human tumor nasopharynx (KB-VIN) cell lines which is drug resistant; format: functional, cell-based
A9 [2] = assay: Cytotoxicity against Beta- tubulin mutant expressing […] cell line of humans was tested; format: functional, cell-based; conditions: Homo sapiens
KB [3] = assay: The compound was tested for its cytotoxic concentration required to inhibit the replication of human tumor nasopharynx (KB) cell lines; format: functional, cell-based
A9 [4] = assay: Percentage inhibition at higher concentration (100 nM) against Beta- tubulin mutant expressing […] cell line; format: functional, Homo sapiens

`COc1ccc2c(c1)C=CCc1cc(OC)c(OC)c(OC)c1-2` showed an IC50 (1A9) of 60 nM, an IC50 (KB [1]) of 68 nM and an IC50 (A9 [2]) of 78 nM. The IC50 (KB [3]) was 60 nM.
`COc1ccc2c(c1)[C@@H](NC(=O)CCl)CCc1cc(OC)c(OC)c(OC)c1-2` showed an IC50 (1A9) of 2.7 nM, an IC50 (KB [1]) of 9.1 nM and an IC50 (A9 [2]) of 13.8 nM. For the same molecule, the IC50 (KB [3]) was 12 nM.
`COc1cc2c(c(OC)c1OC)-c1ccc(OC)c(=O)cc1[C@@H](NC(C)=O)CC2` [COLCHICINE] gave an IC50 (1A9) of 11.9 nM, an IC50 (KB [1]) greater than 100 nM and an IC50 (A9 [2]) of 13.8 nM. The IC50 (KB [3]) was 11.9 nM.
With `COc1ccc2c(c1)[C@@H]1O[C@@H]1Cc1cc(OC)c(OC)c(OC)c1-2` the IC50 (1A9) was 82 nM, the IC50 (KB [1]) was 62 nM and the IC50 (A9 [2]) was greater than 100 nM. The IC50 (KB [3]) was 62 nM and the inhibition at 0.1 µM (A9 [4]) was 17%.
